Data as given in PMC5324734, “DOTA-Derivatives of Octreotide Dicarba-Analogs with High Affinity for Somatostatin sst2,5 Receptors” (Frontiers in Chemistry, 2017).
Where “and” joins values, the source holds several entries; their conditions need not be identical. Identical values can stand only once. Like-named read-outs stand apart in the source and are kept apart here. Where a SMILES comes first, the peptide text is derived from it. Bridges are numbered along the chain shown (N, C = ends). [ ]: non-standard residue; d: D form. The star is where a group is joined. DOTA = O=C(O)CN1CCN(CC(=O)O)CCN(CC(=O)*)CCN(CC(=O)O)CC1; 1Nal = N[C@@H](Cc1cccc2ccccc12)C(=O)O; Thr(ol) = C[C@@H](O)[C@H](N)CO; AllylGly = C=CC[C@H](N)C(=O)O; Bn = c1ccc(C*)cc1

How the values were obtained:
[1] = target: T1, sst2 receptor (Homo sapiens, UniProt P30874); parameters: method as in Di Cianni et al., 2010; settings: free (unconjugated) dicarba-analogs; mean ± SEM; data published previously; ref Di Cianni et al., 2010; cited from earlier work
T1 construct: Cell membrane pellets were prepared from human sst2-expressing endogeneous IMR32 cells; host or cells: IMR32 cells (membrane pellets)

[2] = target: T2, sst5 receptor (Homo sapiens, UniProt P35346); parameters: method as in Di Cianni et al., 2010; settings: free (unconjugated) dicarba-analogs; mean ± SEM; data published previously; ref Di Cianni et al., 2010; cited from earlier work
T2 construct: host or cells: CHO cells (membrane pellets)

[3] = target: T1, sst2 receptor; assay: Somatostatin receptor affinity, displacement of 125I-[LTT]-SRIF-28 (sst2); format: binding; settings: complete displacement of [Leu8,D-Trp22,125I-Tyr25]-SRIF-28; cell membrane pellets from human sst2-expressing endogeneous IMR32 cells; CEREP; mean ± SEM of three independent repetitions
Method: (§1) Determination of Somatostatin receptors affinity was performed at CEREP (Le Bois l'Evêque, B. P. 3,001, 86,600 Celle l'Evescault, France). Cell membrane pellets were prepared from human sst2-expressing endogeneous IMR32 cells, and sst5-expressing human CHO cells. For each of the tested compounds, complete displacement experiments with the universal SRIF radio-ligand [Leu^8, D-Trp^22, ^125I-Tyr^25]-SRIF-28 (125I-[LTT]-SRIF-28) (2000 Ci/mmol; Anawa, Wangen, Switzerland) were performed. As control, unlabeled seglitide and SRIF-14 were run in parallel, using the same increasing concentrations, with sst2 and sst5 subtypes, respectively. IC50 values were calculated by non-linear regression analysis of the competition curves generated with mean replicate values using Hill equation curve. The analysis was performed using software developed at CEREP (Hill software) and validated by comparison with data generated by the commercial software SigmaPlot 4.0 for Windows.
(§2) The three DOTA conjugated compounds 3b, 4b, and 5b were tested for their ability to bind to the sst2 and sst5 receptors subtypes in complete displacement experiments using the universal somatostatin radioligand [^125I]-[Leu^8,D-Trp^22,Tyr^25]-somatostatin-28. IC50 values were calculated after quantification of the data using a computer-assisted image processing system (Table 1). Receptor subtypes sst2 and sst5 were chosen for preliminary binding assays because of their overexpression in some tumor types (Miller et al., [1995]). In Table 1, the affinities of the parent unconjugated compounds 3a, 4a, and 5a are also reported for comparison (Di Cianni et al., [2010]).

[4] = target: T2, sst5 receptor; assay: Somatostatin receptor affinity, displacement of 125I-[LTT]-SRIF-28 (sst5); format: binding; settings: complete displacement of [Leu8,D-Trp22,125I-Tyr25]-SRIF-28; cell membrane pellets from sst5-expressing human CHO cells; CEREP; mean ± SEM of three independent repetitions
Method: as §1, §2

[5] = native hormone; ref Weckbecker et al., 2003; cited from earlier work
From the text: Radiolabeled peptides, targeting specific receptors of malignant cells, in primis GPCRs, have emerged in the past years as one of the most promising tools for diagnosis and therapy of several kinds of metastatic tumors which express these receptors (Ramogida and Orvig, [2013]). Somatostatins SRIF-14 and SRIF-28 are peptide hormones, which have a wide range of pharmacological actions on exocrine and endocrine secretions (Brazeau et al., [1973]) mediated by direct interaction with at least five GPCRs. Chemically, they are -S-S- bridged cyclic peptides containing 14 and 28 amino acids, respective ...

T1 sequence (P30874 whole entry): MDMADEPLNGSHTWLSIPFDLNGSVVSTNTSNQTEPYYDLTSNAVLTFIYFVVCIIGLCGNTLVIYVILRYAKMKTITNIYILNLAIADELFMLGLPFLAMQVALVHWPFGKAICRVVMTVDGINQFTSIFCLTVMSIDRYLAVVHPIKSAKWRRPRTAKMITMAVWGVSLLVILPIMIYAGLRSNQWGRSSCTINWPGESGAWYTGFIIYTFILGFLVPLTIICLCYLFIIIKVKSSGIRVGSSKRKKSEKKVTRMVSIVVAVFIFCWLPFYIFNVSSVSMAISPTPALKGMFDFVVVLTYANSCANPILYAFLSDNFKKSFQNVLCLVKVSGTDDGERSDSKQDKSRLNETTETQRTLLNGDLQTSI
T2 sequence (P35346 whole entry): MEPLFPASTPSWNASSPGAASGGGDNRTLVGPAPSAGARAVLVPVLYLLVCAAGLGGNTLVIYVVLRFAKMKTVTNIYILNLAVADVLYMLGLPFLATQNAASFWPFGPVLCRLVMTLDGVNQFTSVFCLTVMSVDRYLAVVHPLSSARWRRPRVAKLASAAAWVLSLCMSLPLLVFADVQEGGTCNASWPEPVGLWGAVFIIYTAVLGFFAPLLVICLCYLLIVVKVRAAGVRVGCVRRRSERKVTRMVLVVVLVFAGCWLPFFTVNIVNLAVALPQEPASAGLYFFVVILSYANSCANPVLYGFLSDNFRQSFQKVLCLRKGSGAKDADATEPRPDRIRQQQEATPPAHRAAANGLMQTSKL

Row | Compound | IC50 [1] [nM] | IC50 [2] [nM] | IC50 [3] | IC50 [4] [nM] | in vivo half-life [5] [min]
1 | C[C@@H](O)[C@@H]1NC(=O)[C@H](CCCCN)NC(=O)[C@@H](Cc2c[nH]c3ccccc23)NC(=O)[C@H](Cc2cccc3ccccc23)NC(=O)[C@@H](NC(=O)[C@H](N)Cc2ccccc2)C/C=C\C[C@@H](C(=O)N[C@H](CO)[C@@H](C)O)NC1=O [Compound 3a] (H-[dF][AllylGly][1Nal][dW]KT[AllylGly][Thr(ol)]; staple (Z) 2-7) | 9.6 ± 0.9 | 16.5 ± 4.5 | – | – | –
2 | C[C@@H](O)[C@@H]1NC(=O)[C@H](CCCCN)NC(=O)[C@@H](Cc2c[nH]c3ccccc23)NC(=O)[C@H](Cc2cccc3ccccc23)NC(=O)[C@@H](NC(=O)[C@@H](Cc2ccccc2)NC(=O)CN2CCN(CC(=O)O)CCN(CC(=O)O)CCN(CC(=O)O)CC2)C/C=C\C[C@@H](C(=O)N[C@H](CO)[C@@H](C)O)NC1=O [Compound 3b] ({DOTA}-[dF][AllylGly][1Nal][dW]KT[AllylGly][Thr(ol)]; staple (Z) 2-7) | – | – | 61 ± 5.4 nM | 130 ± 7 | –
3 | C[C@@H](O)[C@@H](CO)NC(=O)[C@@H]1C/C=C\C[C@H](NC(=O)[C@H](N)Cc2ccccc2)C(=O)N[C@@H](Cc2ccccc2)C(=O)N[C@H](Cc2c[nH]c3ccccc23)C(=O)N[C@@H](CCCCN)C(=O)N[C@@H](Cc2ccc(OCc3ccccc3)cc2)C(=O)N1 [Compound 4a] (H-[dF][AllylGly]F[dW]KY(Bn)[AllylGly][Thr(ol)]; staple (Z) 2-7) | 46 ± 3 | 12.3 ± 0.3 | – | – | –
4 | C[C@@H](O)[C@@H](CO)NC(=O)[C@@H]1C/C=C\C[C@H](NC(=O)[C@@H](Cc2ccccc2)NC(=O)CN2CCN(CC(=O)O)CCN(CC(=O)O)CCN(CC(=O)O)CC2)C(=O)N[C@@H](Cc2ccccc2)C(=O)N[C@H](Cc2c[nH]c3ccccc23)C(=O)N[C@@H](CCCCN)C(=O)N[C@@H](Cc2ccc(OCc3ccccc3)cc2)C(=O)N1 [Compound 4b] ({DOTA}-[dF][AllylGly]F[dW]KY(Bn)[AllylGly][Thr(ol)]; staple (Z) 2-7) | – | – | > 300 nM | 91 ± 7.8 | –
5 | C[C@@H](O)[C@@H](CO)NC(=O)[C@@H]1C/C=C\C[C@H](NC(=O)[C@H](N)Cc2ccccc2)C(=O)N[C@@H](Cc2cccc3ccccc23)C(=O)N[C@H](Cc2c[nH]c3ccccc23)C(=O)N[C@@H](CCCCN)C(=O)N[C@@H](Cc2ccc(OCc3ccccc3)cc2)C(=O)N1 [Compound 5a] (H-[dF][AllylGly][1Nal][dW]KY(Bn)[AllylGly][Thr(ol)]; staple (Z) 2-7) | 101 ± 9 | 4.9 ± 1 | – | – | –
6 | C[C@@H](O)[C@@H](CO)NC(=O)[C@@H]1C/C=C\C[C@H](NC(=O)[C@@H](Cc2ccccc2)NC(=O)CN2CCN(CC(=O)O)CCN(CC(=O)O)CCN(CC(=O)O)CC2)C(=O)N[C@@H](Cc2cccc3ccccc23)C(=O)N[C@H](Cc2c[nH]c3ccccc23)C(=O)N[C@@H](CCCCN)C(=O)N[C@@H](Cc2ccc(OCc3ccccc3)cc2)C(=O)N1 [Compound 5b] ({DOTA}-[dF][AllylGly][1Nal][dW]KY(Bn)[AllylGly][Thr(ol)]; staple (Z) 2-7) | – | – | > 100 nM and 160 nM | 12 ± 2.6 | –
7 | SRIF-14: native somatostatin peptide hormone, -S-S- bridged cyclic peptide containing 14 amino acids | – | – | – | – | < 3
